{"source": "patent US10988792B2", "about": "“Methods for antimicrobial resistance determination” (bioMerieux, Inc., priority 2009, dated 2021)", "tested_on": "S. aureus isolates", "test": "Vitek AST cards MIC", "type": "cell-based", "conditions": "3/5 strains classified as benzyl-penicillin resistant and oxacillin sensitive by Vitek cards", "method": "Twenty different strains of S. aureus (10 MRSA and 10 MSSA strains, confirmed with cefoxitin discs and Vitek-2) were propagated. A loopful of growth (1 μL) was removed from 24-hour plates and suspended in BacT/ALERT SA culture media (8 ml in a glass screw-capped tube). The tubes were vortexed well and incubated at 36° C. for 6 hours. The OD of each suspension was measured at 660 nm and adjusted to approximately the same density (0.50-0.75 OD; sample #12166 was only 0.28). 50 μM BOCILLIN™-FL (0.1 ml) was placed into each of 20 labeled microfuge tubes. A sample of each strain (0.9 ml) was added to each tube, mixed, and incubated at 37° C. for 30 minutes. The reaction mixture was then removed and added to a second set of tubes containing 0.2 ml of an oil blend (1.000 part type DF immersion oil plus 0.875 part Drakeol 5 mineral oil). The tubes were centrifuged for 2 minutes at 10,000 rpm in an A-8-11 rotor (Eppendorf 5417R). The supernatant and most of the oil was aspirated with a vacuum device. The remaining oil was removed using a Gilson P200 tip and the pellet was resuspended in 100 μl PBS. The cells were transferred to an acrylic cuvette containing 3 ml PBS and read in the FluoroLog 3 system using the FluoroScan “Bocillin” points listed in Table 3. Additionally, Vitek AST cards were run on each of the 20 isolates (from the same 24 hour plates).", "data": [{"smiles": "Cc1onc(-c2ccccc2)c1C(=O)N[C@@H]1C(=O)N2[C@@H]1SC(C)(C)[C@@H]2C(=O)O", "note": "[oxacillin]", "values": [{"measurement": "oxacillin MIC", "result": 0.5, "unit": "µg/mL"}]}]}
